Data taken from PMC11085872, “Structure-Based Design of Novel Thiazolone[3,2-a]pyrimidine Derivatives as Potent RNase H Inhibitors for HIV Therapy” (Molecules, 2024).

How the values were obtained:
[1] = target: T1, HIV-1 RT-associated RNase H (Human immunodeficiency virus type 1 group M subtype B, UniProt P03366); assay: RNase H polymerase-independent cleavage assay; format: biochemical; conditions: for IC50: IC50, compound concentration required to reduce HIV-1 RT-associated RNase H activity by 50%, recombinant HIV-1 wt RT, hybrid RNA/DNA substrate, 37 °C, 1 hour
T1 construct: His-tagged p66/p51 HIV-1 RT group M subtype B; His tag; made in house; host or cells: Escherichia coli strain M15 (plasmid p6HRT-prot)
Procedure: The Ar^1 and Ar^2 aromatic segments of the molecule also approach the protein surface, through hydrophobic interactions. These findings provide important information for further structural optimization. All these newly designed thiazolone[3,2-a]pyrimidine derivatives were evaluated for their inhibitory activity against HIV RT-associated RNase H, using the diketo acid RDS1643 as positive control. […] The decrease in activity observed in compounds containing a sulfonic acid group might be attributed to the excessively strong acidity of the sulfonic acid group, which could protonate the diazo group within the molecule. […] When Ar^2 was changed from a phenyl group to a naphthyl group, the activity of compound 10f gained a great improvement over that of compound 10k. […] And when a negatively charged polar group was present at the 2-position of Ar^2, the inhibitory activity is enhanced. […]
3. Biology Experimental section
3.1 Expression and purification of recombinant HIV-1 RTs.
His-tagged p66/p51 HIV-1 RT group M subtype B coded in a p6HRT-prot plasmid was expressed in the Escherichia coli strain M15.1 Heterodimeric RTs were expressed essentially and purified as described.2 E. coli cells harboring the expression vector were cultured until reaching an optical density at 600 nm of 0.7. Induction of protein expression was achieved by treating the cells with 1.7 mM isopropyl β-D-1-thiogalactopyranoside (IPTG) for a duration of 4 hours. The subsequent purification of the protein was performed using a BioLogic LP system (BioRad) employing a combination of immobilized metal affinity chromatography and ion exchange […]
To initiate the purification process, the cell pellets were resuspended in lysis buffer at a ratio of 1:2 (cell pellet volume: lysis buffer volume). The lysis buffer used consisted of 50 mM sodium phosphate buffer with a pH of 7.8, supplemented with 0.5 mg/ml lysozyme. The resuspended cells were incubated on ice for 20 minutes. Following this, NaCl was added to achieve a final concentration of 0.3 M. The cells were then subjected to sonication, with four cycles of 60 seconds each, alternating between one second on and one second off. Subsequently, the cell lysate was centrifuged at 30, 000×g for 1 […]
The supernatant obtained from the centrifugation step was loaded onto a Ni2+-NTA-Sepharose column that had been pre-equilibrated with a loading buffer consisting of 50 mM sodium phosphate buffer (pH 7.8), 0.3 M NaCl, 10% glycerol, and 10 mM imidazole. The column was washed with a buffer containing 50 mM sodium phosphate buffer (pH 6.0), 0.3 M NaCl, 10% glycerol, and 80 mM imidazole. The target protein, RT, was eluted using an imidazole gradient ranging from 0.08 M to 0.5 M in the wash buffer. Fractions containing the enzyme were collected and combined, and then diluted 1:1 with 50 mM sodium phosphate buffer (pH 7.0) containing 10% glycerol. The diluted protein sample was loaded onto a Hi-trap heparin HP column that had been pre-equilibrated with 10 column volumes of a loading buffer consisting of 50 mM sodium phosphate buffer (pH 7.0), 10% glycerol, and 150 mM NaCl. The column was washed with the loading buffer, and the RT enzyme was eluted using Elute Buffer 2, which
(1 picture or pasted object on this page, not shown here) […]
comprised 50 mM sodium phosphate buffer (pH 7.0), 10% glycerol, and 1 M NaCl.
The eluted fractions containing the purified protein were collected, and the protein was subsequently dialyzed and stored in a buffer composed of 50 mM Tris-HCl (pH 7.0), 25 mM NaCl, 1 mM EDTA, and 50% glycerol. The catalytic activities of the purified protein samples were determined, and aliquots were stored at -80 °C for further use.
3.2 RNase H Polymerase-Independent Cleavage Assay
The HIV-1 RT-associated RNase H activity was measured as described.3 In summary, the reaction was performed in a black 96-well plate with a total volume of 100 μL. The reaction mix consisted of 50 mM Tris HCl (pH 7.8), 6 mM MgCl2, 1 mM dithiothreitol […]

SMILES | melting point [°C] | IC50 [1] [µM] | remaining activity at 100 µM ([1]; read-out: Percentage of the control activity measured at the indicated compound concentration) [%]
COC(=O)C1=C(C)N=C2S/C(=N\Nc3ccccc3C(=O)OC)C(=O)N2C1c1ccccc1 (stereo not drawn) [Compound 10d, Methyl 2-((2-(methoxycarbonyl)phenyl)diazenyl)-7-methyl-3-oxo-5-phenyl-2,3-dihydro-5H-thiazolo[3,2-a]pyrimidine-6-carboxylate] | 184 to 186 | 8.27 ± 0.39 | 
COC(=O)C1=C(C)N=C2SC(=NNc3cc(OC)c(OC)c(OC)c3)C(=O)N2C1c1ccc(OC)cc1 (stereo not drawn) [Compound 12e, Methyl 5-(4-methoxyphenyl)-7-methyl-3-oxo-2-(2-(3,4,5-trimethoxyphenyl)hydrazineylidene)-2,3-dihydro-5H-thiazolo[3,2-a]pyrimidine-6-carboxylate] | 204 to 206 | 8.99 ± 0.27 | 
COC(=O)C1=C(C)N=C2SC(=NNc3cccc(C(=O)OC)c3)C(=O)N2C1c1ccc(OC)c(OC)c1OC (stereo not drawn) [Compound 11j, Methyl 2-(2-(3-(methoxycarbonyl)phenyl)hydrazineylidene)-7-methyl-3-oxo-5-(2,3,4-trimethoxyphenyl)-2,3-dihydro-5H-thiazolo[3,2-a]pyrimidine-6-carboxylate] | 213 to 215 | 42.1 ± 9.78 | 
COC(=O)C1=C(C)N=C2SC(=NNc3ccc(OC)c(OC)c3)C(=O)N2C1c1ccccc1 (stereo not drawn) [Compound 10h, Methyl 2-(2-(3,4-dimethoxyphenyl)hydrazineylidene)-7-methyl-3-oxo-5-phenyl-2,3-dihydro-5H-thiazolo[3,2-a]pyrimidine-6-carboxylate] | 204 to 206 | 14.4 ± 1.23 | 
COC(=O)C1=C(C)N=C2S/C(=N\Nc3ccc4ccccc4c3S(=O)(=O)O)C(=O)N2C1c1ccc(OC)cc1 (stereo not drawn) [Compound 12f] | 271 to 273 | 3.28 | 
COC(=O)C1=C(C)N=C2SC(=NNc3ccc(OC)cc3S(=O)(=O)O)C(=O)N2C1c1ccccc1 (stereo not drawn) [Compound 10e, 5-Methoxy-2-(2-(6-(methoxycarbonyl)-7-methyl-3-oxo-5-phenyl-5H-thiazolo[3,2-a]pyrimidin-2(3H)-ylidene)hydrazineyl)benzenesulfonic acid] | 247 to 249 | 58.4 ± 1.71 | 
COC(=O)C1=C(C)N=C2SC(=NNc3ccccc3)C(=O)N2C1c1ccc(OC)c(OC)c1OC (stereo not drawn) [Compound 11b, Methyl 7-methyl-3-oxo-2-(2-phenylhydrazineylidene)-5-(2,3,4-trimethoxyphenyl)-2,3-dihydro-5H-thiazolo [3,2-a]pyrimidine-6-carboxylate] | 189 to 192 | 48.9 ± 4.73 | 
COC(=O)C1=C(C)N=C2S/C(=N\Nc3ccccc3S(=O)(=O)O)C(=O)N2C1c1ccccc1 (stereo not drawn) [Compound 10k, (2-(6-(Methoxycarbonyl)-7-methyl-3-oxo-5-phenyl-5H-thiazolo[3,2-a]pyrimidin-2(3H)-ylidene)hydrazineyl)benzenesulfonic acid] | 262 to 266 | > 100 | 85
COC(=O)C1=C(C)N=C2SC(=NNc3cccc([N+](=O)[O-])c3)C(=O)N2C1c1ccc(OC)c(OC)c1OC (stereo not drawn) [Compound 11d, Methyl 7-methyl-2-(2-(3-nitrophenyl)hydrazineylidene)-3-oxo-5-(2,3,4-trimethoxyphenyl)-2,3-dihydro-5H-thiazolo[3,2-a]pyrimidine-6-carboxylate] | 236 to 238 | 10.1 ± 1.64 | 
COC(=O)C1=C(C)N=C2SC(=NNc3cc(OC)c(OC)c(OC)c3)C(=O)N2C1c1ccccc1 (stereo not drawn) [Compound 10c, Methyl 7-methyl-3-oxo-5-phenyl-2-(2-(3,4,5-trimethoxyphenyl)hydrazineylidene)-2,3-dihydro-5H-thiazolo[3,2-a]pyrimidine-6-carboxylate] | 211 to 213 | 24.4 ± 1.25 | 
